Reference: US12336991B2, “Factor XIIA inhibitors” (UNIVERSITY OF LEEDS, priority 2018, dated 2025)

Experiments:
Format in all cases: biochemical
[1] = target: T1, FXIIa (Homo sapiens, UniProt P00748); experiment: Determination of Factor XIIa inhibition, chromogenic substrate S-2302 assay; settings: human FXIIa alpha
T1 sequence (P00748 373-615 limits assumed): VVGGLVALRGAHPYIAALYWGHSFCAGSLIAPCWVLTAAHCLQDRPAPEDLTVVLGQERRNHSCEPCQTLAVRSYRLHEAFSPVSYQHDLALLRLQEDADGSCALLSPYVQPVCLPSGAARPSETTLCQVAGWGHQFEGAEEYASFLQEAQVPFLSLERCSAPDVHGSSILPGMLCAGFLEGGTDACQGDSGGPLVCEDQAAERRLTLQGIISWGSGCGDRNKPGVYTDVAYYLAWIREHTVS
T1 sequence (P00748 20-372 partner limits assumed): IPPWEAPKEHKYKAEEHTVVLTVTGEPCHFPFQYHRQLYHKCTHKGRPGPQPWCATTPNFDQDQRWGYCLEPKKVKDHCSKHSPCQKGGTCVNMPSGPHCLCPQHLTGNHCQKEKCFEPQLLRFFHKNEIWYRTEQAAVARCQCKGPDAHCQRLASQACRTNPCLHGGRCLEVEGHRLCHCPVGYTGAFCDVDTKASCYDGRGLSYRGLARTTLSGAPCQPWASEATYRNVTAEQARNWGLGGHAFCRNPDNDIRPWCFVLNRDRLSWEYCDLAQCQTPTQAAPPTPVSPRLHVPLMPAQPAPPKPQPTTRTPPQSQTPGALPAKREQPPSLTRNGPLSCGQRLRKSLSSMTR
Experimental: (§1) The activities of the compounds of the invention have been determined in vitro using the following assays protocols for the screening of activity of FXIIa and other proteases. Each of these assays were performed in a purified system employing the use of chromogenic assays in microplate plate wells. Chromogenic peptide substrates mimicking natural protein substrates are attached via an amide bond to a chromogenic group. Paranitroaniline (pNA) is released from the peptide following catalyses by the proteolytic enzyme; the absorbance increases and can be monitored at 405 nm.
(§2) All compounds were dissolved in 100% (v/v) DMSO to a stock concentration of 10 mM, the highest concentration of compound used in each assay is 500 μM. The final concentrations of DMSO were 5% (v/v) in 50 mM Tris 137 mM NaC pH 7.4. Where no test compound was added a final concentration of 5% DMSO was employed.
Determination of Factor XIa Inhibition
Factor XIa activity was measured using a chromogenic substrate S-2302 (Chromogenix). Various concentrations of compound were incubated with 10 nM of FXIIa and incubated at 37° C. for 10 minutes in 50 mM Tris, 137 mM NaCl, pH 7.4, prior to the addition of a final concentration of 450 µM S-2302 chromogenic substrate. Kinetic readings at 405 nm were monitored every 12 secs for a total duration of 3 hours at 37° C. Gradients of initial rates were determined and employed to calculate IC50 values. Values of IC50 were converted to Ki values based on the formula: Ki=IC50/(1+[Substrate]/Km).
The activity of the compounds of the invention has been categorised based on the Ki values, the categories being “*”, “**” and “***”. […] The category “**” refers to compounds with a Ki value of 0.2 μM to 2 μM.

[2] = target: T2, thrombin (Homo sapiens, UniProt P00734); experiment: Determination of selectivity: thrombin inhibition, chromogenic substrate GPR assay; settings: fold selectivity for FXIIa over thrombin
T2 construct: FXa (5 nM) and thrombin (5 nM)
Experimental: as §1, §2
(§3) Determination of Selectivity
(§4) To determine selectivity of test compounds, these test compounds were assayed for inhibitory activity against other serine proteases including FXa and thrombin. Essentially compounds at increasing concentrations were incubated with each enzyme: FXa (5 nM) and thrombin (5 nM), for 10 mins at 37° C. followed the appropriate chromogenic substrate, S2765 ([…]), and GPR ([…]) respectively in 50 mM Tris, 137 mM NaCl, pH 7.4. Chromogenic substrates S2765 was from Chromogenix, and GPR from Bachem. Kinetic readings at 405 nm were monitored every 12 secs for a total duration of 3 hours at 37° C. Gradients of initial rates were determined and employed to calculate IC50 values. Values of IC50 were converted to Ki values based on the formula: Ki=IC50/(1+[Substrate]/Km)
(§5) Where [Substrate] denotes the concentration of substrate used in the assay and Km is the determined value of each enzyme with its own substrate.
(§6) The fold selectivity for FXIIa over thrombin for the compounds of the invention has been categorised based on the fold selectivity values, the categories being “+”, “++” and “+++”. The category “+” refers to fold selectivity values less than 10. The category “++” refers to a fold selectivity value of 10 to 100. The category “+++” refers to fold selectivity values greater than 100.

[3] = target: FXa (Homo sapiens, UniProt P00742); experiment: Determination of selectivity: FXa inhibition, chromogenic substrate S2765 assay; settings: fold selectivity for FXIIa over FXa
Chain of FXa (P00742 235-488 limits assumed): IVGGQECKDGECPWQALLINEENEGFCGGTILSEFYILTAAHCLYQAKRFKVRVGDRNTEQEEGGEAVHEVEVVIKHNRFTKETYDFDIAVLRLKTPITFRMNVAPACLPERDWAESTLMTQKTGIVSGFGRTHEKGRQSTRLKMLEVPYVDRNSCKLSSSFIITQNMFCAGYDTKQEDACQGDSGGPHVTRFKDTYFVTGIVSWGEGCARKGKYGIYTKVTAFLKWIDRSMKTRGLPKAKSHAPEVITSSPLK
Chain of FXa (P00742 41-179 partner limits assumed): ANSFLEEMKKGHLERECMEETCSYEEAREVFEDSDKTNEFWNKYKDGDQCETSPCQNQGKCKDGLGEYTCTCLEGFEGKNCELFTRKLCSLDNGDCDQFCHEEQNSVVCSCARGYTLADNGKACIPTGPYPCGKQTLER
Experimental: as §1, §2, §3, §4, §5, §6
The fold selectivity for FXIIa over FXa for the compounds of the invention has been categorised based on the fold selectivity values, the categories being “o”, “oo” and “ooo”. The category “o” refers to fold selectivity values less than 10. The category “oo” refers to a fold selectivity value of 10 to 100. The category “ooo” refers to fold selectivity values greater than 100.

Structure (SMILES): COc1ccc(C[C@@H]2C[C@@H](C(=O)NCc3ccc4c(c3)nnn4C)N(C(=O)[C@H](N)CCC(=O)N3CCNC(=O)C3)C2)cc1 [Example M05451]
- Ki [1]: < 200 nM
- Thrombin (human)/FXIIa alpha (human) [2]: +++ (fold selectivity values greater than 100)
- FXa (human)/FXIIa alpha (human) [3]: ∘∘∘

Structure (SMILES): COc1ccc(C[C@@H]2C[C@@H](C(=O)NCc3ccc4c(c3)nnn4C)N(C(=O)[C@H](N)CC3CCCc4ccccc43)C2)cc1 (stereo partly drawn) [Example M05413]
- Ki [1]: 200 to 2000 nM
- Thrombin (human)/FXIIa alpha (human) [2]: ++ (fold selectivity value of 10 to 100)
- FXa (human)/FXIIa alpha (human) [3]: ∘∘∘

Structure (SMILES): Cn1nnc2cc(CNC(=O)[C@@H]3C[C@@H](Cc4cccc5c4CCO5)CN3C(=O)[C@H](N)CCC(=O)N3CCCC3)ccc21 [Example M05380]
- Ki [1]: 200 to 2000 nM
- Thrombin (human)/FXIIa alpha (human) [2]: +++ (fold selectivity values greater than 100)
- FXa (human)/FXIIa alpha (human) [3]: ∘∘∘

Structure (SMILES): COc1ccc(C[C@@H]2C[C@@H](C(=O)NCc3ccc4c(c3)nnn4C)N(C(=O)[C@H]3CC(c4cccnc4F)CN3)C2)cc1 (stereo partly drawn) [Example M05418]
- Ki [1]: 200 to 2000 nM
- Thrombin (human)/FXIIa alpha (human) [2]: +++ (fold selectivity values greater than 100)
- FXa (human)/FXIIa alpha (human) [3]: ∘∘∘

Structure (SMILES): Cn1nnc2cc(CNC(=O)[C@@H]3CC(Cc4ccnc(F)c4)CN3C(=O)[C@H](N)CCC(=O)N3CCCC3)ccc21 (stereo partly drawn) [Example M05315]
- Ki [1]: > 2000 nM
- Thrombin (human)/FXIIa alpha (human) [2]: ++ (fold selectivity value of 10 to 100)
- FXa (human)/FXIIa alpha (human) [3]: ∘∘

Structure (SMILES): Cn1cc(-c2ccc(C[C@@H]3C[C@@H](C(=O)NCc4ccc5c(c4)nnn5C)N(C(=O)[C@H](N)CCC(=O)N4CCCC4)C3)cc2)cn1 [Example M05341]
- Ki [1]: 200 to 2000 nM
- Thrombin (human)/FXIIa alpha (human) [2]: +++ (fold selectivity values greater than 100)
- FXa (human)/FXIIa alpha (human) [3]: ∘∘∘

Structure (SMILES): Cn1nnc2cc(CNC(=O)[C@@H]3CC(Cc4ccc(OC(F)(F)F)cc4)CN3C(=O)[C@H](N)CCC(=O)N3CCCC3)ccc21 (stereo partly drawn) [Example M05306, (S)-1-((R)-2-Amino-5-oxo-5-pyrrolidin-1-yl-pentanoyl)-4-(4-trifluoromethoxy-benzyl)-pyrrolidine-2-carboxylicacid (1-methyl-1H-benzotriazol-5-ylmethyl)-amide]
- Ki [1]: < 200 nM
- Thrombin (human)/FXIIa alpha (human) [2]: +++ (fold selectivity values greater than 100)
- FXa (human)/FXIIa alpha (human) [3]: ∘∘∘

Structure (SMILES): COc1ccc(C[C@@H]2C[C@@H](C(=O)NCc3ccc4c(c3)nnn4C)N(C(=O)[C@H]3CC(c4ccccc4F)CN3)C2)cc1 (stereo partly drawn) [Example M05377]
- Ki [1]: 200 to 2000 nM
- Thrombin (human)/FXIIa alpha (human) [2]: +++ (fold selectivity values greater than 100)
- FXa (human)/FXIIa alpha (human) [3]: ∘∘∘

Structure (SMILES): COc1ccc(C[C@@H]2C[C@@H](C(=O)NCc3ccc4c(c3)nnn4C)N(C(=O)[C@H]3C[C@@H](Oc4ccccc4)CN3)C2)cc1 [Example M05351]
- Ki [1]: > 2000 nM
- Thrombin (human)/FXIIa alpha (human) [2]: ++ (fold selectivity value of 10 to 100)
- FXa (human)/FXIIa alpha (human) [3]: ∘∘

Structure (SMILES): Cn1nc(Cl)c2cc(CNC(=O)[C@@H]3C[C@@H](Cc4ccncc4)CN3C(=O)[C@H](N)CCC(=O)N3CCCC3)ccc21 [Example M05241]
- Ki [1]: < 200 nM
- Thrombin (human)/FXIIa alpha (human) [2]: ++ (fold selectivity value of 10 to 100)
- FXa (human)/FXIIa alpha (human) [3]: ∘∘∘

Structure (SMILES): COc1ccc(C[C@@H]2C[C@@H](C(=O)NCc3cc4cnccc4[nH]3)N(C(=O)C3NCCc4cc(OC)ccc43)C2)cc1 (single isomer, unassigned) [Example M00961]
- Ki [1]: < 200 nM
- Thrombin (human)/FXIIa alpha (human) [2]: +++ (fold selectivity values greater than 100)
- FXa (human)/FXIIa alpha (human) [3]: ∘∘∘

Structure (SMILES): Cn1nnc2cc(CNC(=O)[C@@H]3C[C@@H](Cc4ccncc4)CN3C(=O)[C@@H](CCC(=O)N3CCCC3)NCC(F)(F)F)ccc21 [Example M05271]
- Ki [1]: > 2000 nM
- Thrombin (human)/FXIIa alpha (human) [2]: ++ (fold selectivity value of 10 to 100)
- FXa (human)/FXIIa alpha (human) [3]: ∘∘

Structure (SMILES): COc1ccc(C[C@@H]2C[C@@H](C(=O)NCc3ccc4c(c3)nnn4C)N(C(=O)C3NCCc4cc(Cl)ccc43)C2)cc1 (stereo partly drawn) [Example M05431]
- Ki [1]: > 2000 nM
- Thrombin (human)/FXIIa alpha (human) [2]: ++ (fold selectivity value of 10 to 100)
- FXa (human)/FXIIa alpha (human) [3]: ∘∘

Structure (SMILES): Cn1nnc2cc(CNC(=O)[C@@H]3CC(NCC4CCCCC4)CN3C(=O)[C@H](N)CCc3ccccc3)ccc21 (stereo partly drawn) [Example M05204]
- Ki [1]: > 2000 nM
- Thrombin (human)/FXIIa alpha (human) [2]: ++ (fold selectivity value of 10 to 100)
- FXa (human)/FXIIa alpha (human) [3]: ∘∘

Structure (SMILES): COc1ccc(C[C@@H]2C[C@@H](C(=O)NCc3ccc4c(c3)nnn4C)N(C(=O)[C@H](N)CCC(=O)N3CCCC3C(F)(F)F)C2)cc1 (stereo partly drawn) [Example M05392]
- Ki [1]: < 200 nM
- Thrombin (human)/FXIIa alpha (human) [2]: +++ (fold selectivity values greater than 100)
- FXa (human)/FXIIa alpha (human) [3]: ∘∘∘

Structure (SMILES): COc1ccc(C[C@@H]2C[C@@H](C(=O)NCc3ccc4c(c3)nnn4C)N(C(=O)[C@H]3CC(c4ccccc4C(F)(F)F)CN3)C2)cc1 (stereo partly drawn) [Example M05397]
- Ki [1]: 200 to 2000 nM
- Thrombin (human)/FXIIa alpha (human) [2]: +++ (fold selectivity values greater than 100)
- FXa (human)/FXIIa alpha (human) [3]: ∘∘∘

Structure (SMILES): COc1ccc(C[C@@H]2C[C@@H](C(=O)NCc3ccc4c(c3)nnn4C)N(C(=O)[C@H](N)CCC(=O)N3CCNC[C@@H]3C)C2)cc1 [Example M05417, (2S,4R)-1-[(R)-2-amino-5-((S)-2-methyl-piperazin-1-yl)-5-oxo-pentanoyl]-4-(4-methoxy-benzyl)-pyrrolidine-2-carboxylic acid (1-methyl-1H-benzotriazol-5-ylmethyl)-amide]
- Ki [1]: 200 to 2000 nM
- Thrombin (human)/FXIIa alpha (human) [2]: +++ (fold selectivity values greater than 100)
- FXa (human)/FXIIa alpha (human) [3]: ∘∘∘

Structure (SMILES): Cn1nnc2cc(CNC(=O)[C@@H]3C[C@@H](c4ccccc4)CN3C(=O)[C@H](N)CCc3ccccc3)ccc21 [Example M05119, (2S,4S)-1-((R)-2-Amino-4-phenyl-butyryl)-4-phenyl-pyrrolidine-2-carboxylic acid (1-methyl-1H-benzotriazol-5-ylmethyl)-amide]
- Ki [1]: > 2000 nM
- Thrombin (human)/FXIIa alpha (human) [2]: ++ (fold selectivity value of 10 to 100)
- FXa (human)/FXIIa alpha (human) [3]: ∘∘
